Results: patent US9981959B2, “Thiazolyl and oxazolyl urea, thiourea, guanidine and cyanoguanidine compounds as TrkA kinase inhibitors” (Array BioPharma Inc., priority 2012, dated 2018)

Columns and labels:
Assay in all cases: KinaseProfiler off-target kinase profiling
Format in all cases: biochemical
Settings in all cases: 10 μM, ATP near Km
ErbB4 = target: T1, ErbB4 (Homo sapiens, UniProt Q15303)
T1 construct: purchased Millipore, Inc. (KinaseProfiler service)
Method: (§1) A representative compound of the invention (Example 2) was tested for off-target kinase activity at a concentration of 10 μM by Millipore, Inc. in their KinaseProfiler™ service against all the kinases available in their full kinase panel. The compound was run in duplicate at a concentration of ATP near the Km for each individual kinase according to Millipore's specifications. The results are shown in Table B. Data are reported as percent of control (POC) and are the average of the two replicates.

FAK2 = target: T2, FAK2 (Homo sapiens, UniProt Q14289)
T2 construct: purchased Millipore, Inc. (KinaseProfiler service)
Method: as §1

PRK2 = target: T3, PRK2 (Homo sapiens, UniProt Q16513)
T3 construct: purchased Millipore, Inc. (KinaseProfiler service)
Method: as §1

p38gamma = target: T4, p38gamma (Homo sapiens, UniProt P53778)
T4 construct: purchased Millipore, Inc. (KinaseProfiler service)
Method: as §1

CLK2 = target: T5, CLK2 (Homo sapiens, UniProt P49760)
T5 construct: purchased Millipore, Inc. (KinaseProfiler service)
Method: as §1

MAP3K5 = target: T6, MAP3K5 (Homo sapiens, UniProt Q99683)
T6 construct: purchased Millipore, Inc. (KinaseProfiler service)
Method: as §1

IR Activated = target: T7, IR Activated (Homo sapiens, UniProt P06213)
T7 construct: purchased Millipore, Inc. (KinaseProfiler service)
Method: as §1

AMPK(A1/B1/G1) = target: T8, AMPK(A1/B1/G1) (Homo sapiens, UniProt Q13131)
T8 construct: purchased Millipore (KinaseProfiler service)
Method: as §1

NEK6 = target: T9, NEK6 (Homo sapiens, UniProt Q9HC98)
T9 construct: purchased Millipore, Inc. (KinaseProfiler service)
Method: as §1

STK33 = target: T10, STK33 (Homo sapiens, UniProt Q9BYT3)
T10 construct: purchased Millipore, Inc. (KinaseProfiler service)
Method: as §1

BrSK2 = target: T11, BrSK2 (Homo sapiens, UniProt Q8IWQ3)
T11 construct: purchased Millipore (KinaseProfiler service)
Method: as §1

Plk2 = target: T12, Plk2 (Homo sapiens, UniProt Q9NYY3)
T12 construct: purchased Millipore, Inc. (KinaseProfiler service)
Method: as §1

CAMK2g = target: T13, CAMK2g (Homo sapiens, UniProt Q13555)
T13 construct: purchased Millipore (KinaseProfiler service)
Method: as §1

p38beta = target: T14, p38beta (Homo sapiens, UniProt Q15759)
T14 construct: purchased Millipore, Inc. (KinaseProfiler service)
Method: as §1

CK1gamma2 = target: T15, CK1gamma2 (Homo sapiens, UniProt P78368)
T15 construct: purchased Millipore, Inc. (KinaseProfiler service)
Method: as §1

NEK11 = target: T16, NEK11 (Homo sapiens, UniProt Q8NG66)
T16 construct: purchased Millipore, Inc. (KinaseProfiler service)
Method: as §1

MuSK = target: T17, MuSK (Homo sapiens, UniProt O15146)
T17 construct: purchased Millipore, Inc. (KinaseProfiler service)
Method: as §1

PKCiota = target: T18, PKCiota (Homo sapiens, UniProt P41743)
T18 construct: purchased Millipore, Inc. (KinaseProfiler service)
Method: as §1

AKT2 = target: T19, AKT2 (Homo sapiens, UniProt P31751)
T19 construct: purchased Millipore (KinaseProfiler service)
Method: as §1

ULK3 = target: T20, ULK3 (Homo sapiens, UniProt Q6PHR2)
T20 construct: purchased Millipore, Inc. (KinaseProfiler service)
Method: as §1

Haspin = target: T21, Haspin (Homo sapiens, UniProt Q8TF76)
T21 construct: purchased Millipore, Inc. (KinaseProfiler service)
Method: as §1

HIPK2 = target: T22, HIPK2 (Homo sapiens, UniProt Q9H2X6)
T22 construct: purchased Millipore, Inc. (KinaseProfiler service)
Method: as §1

CDK7/cyclinH/MAT1 = target: T23, CDK7/cyclinH/MAT1 (Homo sapiens, UniProt P50613)
T23 construct: purchased Millipore, Inc. (KinaseProfiler service)
Method: as §1

MEK1 = target: T24, MEK1 (Homo sapiens, UniProt Q02750)
T24 construct: purchased Millipore, Inc. (KinaseProfiler service)
Method: as §1

TAO2 = target: T25, TAO2 (Homo sapiens, UniProt Q9UL54)
T25 construct: purchased Millipore, Inc. (KinaseProfiler service)
Method: as §1

TNK2 = target: T26, TNK2 (Homo sapiens, UniProt Q07912)
T26 construct: purchased Millipore, Inc. (KinaseProfiler service)
Method: as §1

PAK5 = target: T27, PAK5 (Homo sapiens, UniProt Q9P286)
T27 construct: purchased Millipore, Inc. (KinaseProfiler service)
Method: as §1

MSK2 = target: T28, MSK2 (Homo sapiens, UniProt O75676)
T28 construct: purchased Millipore, Inc. (KinaseProfiler service)
Method: as §1

PKCepsilon = target: T29, PKCepsilon (Homo sapiens, UniProt Q02156)
T29 construct: purchased Millipore, Inc. (KinaseProfiler service)
Method: as §1

eEF-2K = target: T30, eEF-2K (Homo sapiens, UniProt O00418)
T30 construct: purchased Millipore, Inc. (KinaseProfiler service)
Method: as §1

ERK1 = target: T31, ERK1 (Homo sapiens, UniProt P27361)
T31 construct: purchased Millipore, Inc. (KinaseProfiler service)
Method: as §1

Ros = target: T32, Ros (Homo sapiens, UniProt P08922)
T32 construct: purchased Millipore, Inc. (KinaseProfiler service)
Method: as §1

Flt1 = target: T33, Flt1 (Homo sapiens, UniProt P17948)
T33 construct: purchased Millipore, Inc. (KinaseProfiler service)
Method: as §1

GRK6 = target: T34, GRK6 (Homo sapiens, UniProt P43250)
T34 construct: purchased Millipore, Inc. (KinaseProfiler service)
Method: as §1

ZAP-70 = target: T35, ZAP-70 (Homo sapiens, UniProt P43403)
T35 construct: purchased Millipore, Inc. (KinaseProfiler service)
Method: as §1

Fms = target: T36, Fms (Homo sapiens, UniProt P07333)
T36 construct: purchased Millipore, Inc. (KinaseProfiler service)
Method: as §1

EphB2 = target: T37, EphB2 (Homo sapiens, UniProt P29323)
T37 construct: purchased Millipore, Inc. (KinaseProfiler service)
Method: as §1

DAPK2 = target: T38, DAPK2 (Homo sapiens, UniProt Q9UIK4)
T38 construct: purchased Millipore, Inc. (KinaseProfiler service)
Method: as §1

PRKG1beta = target: T39, PRKG1beta (Homo sapiens, UniProt Q13976)
T39 construct: purchased Millipore, Inc. (KinaseProfiler service)
Method: as §1

Fgr = target: T40, Fgr (Homo sapiens, UniProt P09769)
T40 construct: purchased Millipore, Inc. (KinaseProfiler service)
Method: as §1

FAK = target: T41, FAK (Homo sapiens, UniProt Q05397)
T41 construct: purchased Millipore, Inc. (KinaseProfiler service)
Method: as §1

T33 sequence (P17948 27-1338): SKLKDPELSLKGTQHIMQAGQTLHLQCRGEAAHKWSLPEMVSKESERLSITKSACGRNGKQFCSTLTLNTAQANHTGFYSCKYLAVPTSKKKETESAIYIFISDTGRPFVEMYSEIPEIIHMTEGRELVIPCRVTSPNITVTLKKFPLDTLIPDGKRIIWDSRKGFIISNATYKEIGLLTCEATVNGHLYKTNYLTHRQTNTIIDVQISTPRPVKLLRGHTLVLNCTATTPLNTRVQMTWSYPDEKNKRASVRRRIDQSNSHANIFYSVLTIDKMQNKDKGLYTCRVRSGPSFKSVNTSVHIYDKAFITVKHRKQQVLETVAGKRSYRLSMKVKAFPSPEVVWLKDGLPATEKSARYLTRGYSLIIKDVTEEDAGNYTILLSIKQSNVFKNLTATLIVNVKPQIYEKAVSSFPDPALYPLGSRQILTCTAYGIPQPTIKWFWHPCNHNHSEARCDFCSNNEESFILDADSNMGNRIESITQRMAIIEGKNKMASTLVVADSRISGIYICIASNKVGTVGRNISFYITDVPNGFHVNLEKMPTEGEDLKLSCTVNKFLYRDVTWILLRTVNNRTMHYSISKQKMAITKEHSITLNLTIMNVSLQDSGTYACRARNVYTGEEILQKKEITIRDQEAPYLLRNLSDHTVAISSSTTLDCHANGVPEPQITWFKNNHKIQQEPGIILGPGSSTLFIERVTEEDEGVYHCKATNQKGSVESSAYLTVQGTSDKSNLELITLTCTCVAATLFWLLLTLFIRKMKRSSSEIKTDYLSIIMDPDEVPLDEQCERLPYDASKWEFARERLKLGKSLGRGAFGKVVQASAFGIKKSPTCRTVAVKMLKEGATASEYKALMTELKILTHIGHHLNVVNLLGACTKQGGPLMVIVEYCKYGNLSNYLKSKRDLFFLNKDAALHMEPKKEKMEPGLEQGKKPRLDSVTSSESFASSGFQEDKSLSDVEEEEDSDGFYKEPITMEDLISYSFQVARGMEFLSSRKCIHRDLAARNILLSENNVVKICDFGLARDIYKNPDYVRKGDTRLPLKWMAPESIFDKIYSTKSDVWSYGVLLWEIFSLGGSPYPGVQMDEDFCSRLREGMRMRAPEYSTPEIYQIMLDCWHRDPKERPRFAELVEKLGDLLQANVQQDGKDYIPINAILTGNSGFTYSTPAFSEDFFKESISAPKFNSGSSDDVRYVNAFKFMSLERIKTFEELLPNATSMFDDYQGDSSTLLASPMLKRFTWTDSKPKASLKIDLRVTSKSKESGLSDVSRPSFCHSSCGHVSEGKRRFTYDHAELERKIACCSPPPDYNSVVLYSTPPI
T15 sequence (P78368 whole entry): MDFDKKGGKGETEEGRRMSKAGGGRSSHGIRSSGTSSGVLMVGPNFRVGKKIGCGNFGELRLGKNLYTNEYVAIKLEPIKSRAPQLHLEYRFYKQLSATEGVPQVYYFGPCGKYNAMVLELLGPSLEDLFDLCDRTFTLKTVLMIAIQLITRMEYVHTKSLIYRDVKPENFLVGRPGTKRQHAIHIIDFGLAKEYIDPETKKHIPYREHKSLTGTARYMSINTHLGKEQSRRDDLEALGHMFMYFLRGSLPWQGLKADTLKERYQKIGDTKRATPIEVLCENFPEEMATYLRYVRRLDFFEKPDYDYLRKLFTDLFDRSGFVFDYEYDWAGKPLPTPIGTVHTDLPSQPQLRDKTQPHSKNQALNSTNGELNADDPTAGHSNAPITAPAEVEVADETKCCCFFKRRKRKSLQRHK
T2 sequence (Q14289 whole entry): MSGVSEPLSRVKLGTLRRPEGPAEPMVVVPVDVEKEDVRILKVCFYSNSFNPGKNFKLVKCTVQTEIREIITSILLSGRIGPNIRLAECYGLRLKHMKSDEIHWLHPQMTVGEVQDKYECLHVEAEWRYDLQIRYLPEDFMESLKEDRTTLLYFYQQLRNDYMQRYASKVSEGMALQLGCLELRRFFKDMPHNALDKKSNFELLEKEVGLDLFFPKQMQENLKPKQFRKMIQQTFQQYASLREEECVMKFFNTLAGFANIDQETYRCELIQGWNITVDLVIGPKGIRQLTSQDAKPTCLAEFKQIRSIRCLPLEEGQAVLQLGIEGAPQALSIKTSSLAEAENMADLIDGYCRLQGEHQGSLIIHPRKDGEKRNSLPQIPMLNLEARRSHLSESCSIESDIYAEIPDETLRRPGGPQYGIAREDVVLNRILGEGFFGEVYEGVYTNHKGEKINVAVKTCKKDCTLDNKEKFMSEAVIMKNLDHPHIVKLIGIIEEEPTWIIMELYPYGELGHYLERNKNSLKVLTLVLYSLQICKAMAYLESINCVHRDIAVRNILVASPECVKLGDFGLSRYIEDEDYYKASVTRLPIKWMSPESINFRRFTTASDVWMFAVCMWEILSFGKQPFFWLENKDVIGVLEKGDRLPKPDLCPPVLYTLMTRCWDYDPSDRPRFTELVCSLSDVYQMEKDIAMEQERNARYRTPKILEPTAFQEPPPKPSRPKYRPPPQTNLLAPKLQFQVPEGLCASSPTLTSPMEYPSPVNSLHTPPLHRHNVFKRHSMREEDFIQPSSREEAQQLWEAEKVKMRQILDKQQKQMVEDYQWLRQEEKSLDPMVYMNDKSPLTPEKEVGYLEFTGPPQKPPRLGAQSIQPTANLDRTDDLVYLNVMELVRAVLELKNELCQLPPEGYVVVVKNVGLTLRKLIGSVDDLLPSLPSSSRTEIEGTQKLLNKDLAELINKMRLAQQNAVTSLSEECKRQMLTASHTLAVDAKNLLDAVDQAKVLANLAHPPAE
T40 sequence (P09769 whole entry): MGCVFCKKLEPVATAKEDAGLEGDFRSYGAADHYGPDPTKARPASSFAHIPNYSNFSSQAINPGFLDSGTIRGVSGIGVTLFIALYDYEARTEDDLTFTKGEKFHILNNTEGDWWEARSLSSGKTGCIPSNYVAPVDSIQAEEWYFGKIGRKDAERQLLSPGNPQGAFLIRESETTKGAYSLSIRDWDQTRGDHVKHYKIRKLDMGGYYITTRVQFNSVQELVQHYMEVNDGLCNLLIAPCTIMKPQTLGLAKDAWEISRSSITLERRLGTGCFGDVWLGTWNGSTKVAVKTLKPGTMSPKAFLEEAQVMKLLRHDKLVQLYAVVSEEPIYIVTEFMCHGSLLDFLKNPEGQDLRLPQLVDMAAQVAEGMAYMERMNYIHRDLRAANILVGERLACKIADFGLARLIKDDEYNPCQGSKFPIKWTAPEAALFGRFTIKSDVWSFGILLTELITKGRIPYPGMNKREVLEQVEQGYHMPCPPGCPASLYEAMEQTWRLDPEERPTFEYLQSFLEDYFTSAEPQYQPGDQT
T1 sequence (Q15303 26-1308): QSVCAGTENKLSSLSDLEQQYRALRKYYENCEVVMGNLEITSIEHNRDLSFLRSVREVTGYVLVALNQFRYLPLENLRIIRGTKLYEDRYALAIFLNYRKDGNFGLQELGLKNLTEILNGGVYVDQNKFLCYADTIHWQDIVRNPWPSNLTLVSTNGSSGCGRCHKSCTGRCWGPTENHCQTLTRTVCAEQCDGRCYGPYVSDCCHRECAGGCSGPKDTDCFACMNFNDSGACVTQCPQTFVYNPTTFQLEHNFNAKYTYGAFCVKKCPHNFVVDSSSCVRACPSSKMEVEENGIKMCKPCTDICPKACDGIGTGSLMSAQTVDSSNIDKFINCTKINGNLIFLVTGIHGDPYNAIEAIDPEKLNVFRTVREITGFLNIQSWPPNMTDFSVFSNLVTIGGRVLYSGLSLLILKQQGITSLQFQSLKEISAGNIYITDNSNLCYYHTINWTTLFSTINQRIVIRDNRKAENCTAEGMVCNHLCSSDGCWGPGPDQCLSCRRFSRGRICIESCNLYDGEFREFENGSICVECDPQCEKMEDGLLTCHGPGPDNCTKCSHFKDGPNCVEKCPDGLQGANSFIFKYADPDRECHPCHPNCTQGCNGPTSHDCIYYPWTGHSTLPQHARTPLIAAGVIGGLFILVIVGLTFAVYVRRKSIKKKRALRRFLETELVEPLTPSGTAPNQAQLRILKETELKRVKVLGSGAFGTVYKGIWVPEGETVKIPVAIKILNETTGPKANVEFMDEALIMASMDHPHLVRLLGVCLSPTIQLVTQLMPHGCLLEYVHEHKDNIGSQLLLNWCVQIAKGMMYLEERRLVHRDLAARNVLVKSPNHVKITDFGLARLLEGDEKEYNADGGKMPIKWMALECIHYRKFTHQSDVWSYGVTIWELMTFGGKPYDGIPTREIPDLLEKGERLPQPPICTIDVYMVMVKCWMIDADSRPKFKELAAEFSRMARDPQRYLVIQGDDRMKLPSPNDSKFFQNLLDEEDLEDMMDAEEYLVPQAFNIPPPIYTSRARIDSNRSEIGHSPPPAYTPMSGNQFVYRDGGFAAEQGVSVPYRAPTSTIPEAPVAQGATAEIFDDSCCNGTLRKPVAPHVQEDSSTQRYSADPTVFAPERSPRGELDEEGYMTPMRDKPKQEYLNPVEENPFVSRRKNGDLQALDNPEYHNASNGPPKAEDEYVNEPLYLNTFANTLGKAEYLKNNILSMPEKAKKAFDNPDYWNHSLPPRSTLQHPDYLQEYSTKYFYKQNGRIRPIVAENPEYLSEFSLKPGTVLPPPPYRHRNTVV
T9 sequence (Q9HC98 whole entry): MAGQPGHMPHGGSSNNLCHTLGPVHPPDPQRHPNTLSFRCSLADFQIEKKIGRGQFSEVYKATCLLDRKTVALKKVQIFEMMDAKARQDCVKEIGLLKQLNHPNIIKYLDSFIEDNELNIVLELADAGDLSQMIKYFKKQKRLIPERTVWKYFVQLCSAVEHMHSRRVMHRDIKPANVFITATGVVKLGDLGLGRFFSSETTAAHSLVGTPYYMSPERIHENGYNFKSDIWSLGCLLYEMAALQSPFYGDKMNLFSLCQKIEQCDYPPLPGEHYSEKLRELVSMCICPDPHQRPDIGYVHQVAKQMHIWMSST

Avg POC (ErbB4): 125 POC | Avg POC (FAK2): 107 POC | Avg POC (PRK2): 104.5 POC | Avg POC (p38gamma): 105 POC | Avg POC (CLK2): 118 POC | Avg POC (MAP3K5): 107.5 POC | Avg POC (IR Activated): 113.5 POC | Avg POC (AMPK(A1/B1/G1)): 134.5 POC | Avg POC (NEK6): 117.5 POC | Avg POC (STK33): 120.5 POC | Avg POC (BrSK2): 116.5 POC | Avg POC (Plk2): 99 POC | Avg POC (CAMK2g): 103 POC | Avg POC (p38beta): 106.5 POC | Avg POC (CK1gamma2): 110 POC | Avg POC (NEK11): 73.5 POC | Avg POC (MuSK): 88 POC | Avg POC (PKCiota): 67 POC | Avg POC (AKT2): 171.5 POC | Avg POC (ULK3): 90 POC | Avg POC (Haspin): 112.5 POC | Avg POC (HIPK2): 98.5 POC | Avg POC (CDK7/cyclinH/MAT1): 113 POC | Avg POC (MEK1): 103.5 POC | Avg POC (TAO2): 123.5 POC | Avg POC (TNK2): 142.5 POC | Avg POC (PAK5): 131.5 POC | Avg POC (MSK2): 136 POC | Avg POC (PKCepsilon): 102 POC | Avg POC (eEF-2K): 151.5 POC | Avg POC (ERK1): 96.5 POC | Avg POC (Ros): 96.5 POC | Avg POC (Flt1): 104 POC | Avg POC (GRK6): 98.5 POC | Avg POC (ZAP-70): 133 POC | Avg POC (Fms): 89.5 POC | Avg POC (EphB2): 119 POC | Avg POC (DAPK2): 103.5 POC | Avg POC (PRKG1beta): 119 POC | Avg POC (Fgr): 128 POC | Avg POC (FAK): 106 POC
SMILES: Cc1c(-c2cnn(C)c2)nn(-c2ccccc2)c1NC(=O)Nc1sc(C(F)(F)F)nc1-c1ccccc1 [Example 2, 1-(1′,4-dimethyl-1-phenyl-1H,1′H-[3,4′-bipyrazol]-5-yl)-3-(4-phenyl-2-(trifluoromethyl)thiazol-5-yl)urea]
